Test results reported in patent US12440567B2, “Aqueous antibody formulation stabilized by antioxidants for parenteral administration” (AMGEN INC., priority 2007, dated 2025).

Tests used:
[1] = system: Antibody A (IgG1); experiment: SEC-HPLC aggregation of Antibody A (IgG1) after UV-B exposure; format: physicochemical
Description: (§3) The SEC-HPLC conditions were as follows: a G3000 TOSOH SWXL column was used and the flowrate was set at 0.5 mL/min. […] For both IgG1 and IgG2, the mobile phase was 80 mM sodium phosphate, 300 mM sodium perchlorate, 10% isopropanol, pH 7.2, and each sample was run for 45 minutes.
(§4) For FIG. 5, the anti-streptavidin formulation was prepared having the following characteristics: 1 mg/mL anti-streptavidin mAb (IgG2), 10 mM sodium acetate, 5% sorbitol, and pH 5.00. For FIG. 6, the Antibody A formulation was prepared having the following characteristics: 1 mg/mL Antibody A (IgG1), 10 mM sodium acetate, 9% sucrose, and pH 5.20.

[2] = PABA: doses as high as 12 grams per day; cited from earlier work
[3] = cited from earlier work
[4] = system: anti-streptavidin (IgG2 antibody); experiment: Thermal aggregation of anti-streptavidin at 52° C. for 10 days; format: physicochemical; settings: 5% glycerol; anti-streptavidin, 50 mM sodium acetate pH 5.00; 10 days 52° C.
Description: The SEC-HPLC conditions were as follows: a G3000 TOSOH SWXL column was used and the flowrate was set at 0.5 mL/min. […] Anti-streptavidin was formulated in 50 mM sodium acetate at pH 5.00. These formulations were not exposed to UV radiation but assessed on their thermal stability.

[5] = system: Antibody B binding to protein A; experiment: Binding of Antibody B to protein A after UV-B exposure of the formulation; settings: 20 mM additive; pH 6.90 phosphate buffer; 0-24 hours UV-B
Description: (§1) For the examples below involving exposure to UVB radiation, each sample was exposed to UVB light (λ≈302 nm) for varying times, using a UVP 8W model UVLMS-38 lamp at 4° C. The formulations were then analyzed using size exclusion chromatography high pressure liquid chromatography (SEC-HPLC). Aggregation (measured via SEC-HPLC analysis) and binding (measured using CM5 gold sensor chips) were measured to determine the effect of the antioxidant on aggregation and bioactivity of the therapeutic protein.
The binding activity of therapeutic protein to a ligand (e.g. to an antibody or binding partner, or, in cases where the therapeutic was an antibody, binding activity to the specific target antigen or to protein A) was determined as follows. […] The therapeutic protein-binding ligand of interest was injected until the desired immobilization level was achieved (above 5000 response units). Three different therapeutic protein-binding ligands were measured—Antibody A's target antigen, Protein A, and D11 (an antibody that binds to erythropoietin). […] The remaining activated groups were blocked with 1.0 M ethanolamine-HCl, pH 8.5.
A standard curve was prepared by using native forms of the therapeutic protein of interest. Native forms of the therapeutic protein were diluted in HBS-EP buffer (pH 7.4) to concentrations between 1 and 5 μg/mL, and then injected on the column, prepared as described above to obtain a standard curve. At the end of each sample run, regeneration buffer was used to wash away any bound therapeutic protein in preparation for subsequent injections.
Various UV-stressed antibody formulations were also diluted in HBS-EP buffer (pH 7.4) to a concentration within the standard curve region, and injected to quantitate the loss of bioactivity to its respective ligand-binding partner.

[6] = system: anti-streptavidin mAb (IgG2); experiment: SEC-HPLC aggregation of anti-streptavidin (IgG2) after UV-B exposure; format: physicochemical; settings: 20 mM antioxidant; 1 mg/mL anti-streptavidin, 10 mM sodium acetate, 5% sorbitol, pH 5.00; 302 nm UV-B 24 hours
Description: as §3, §4

[7] = system: EPO binding to D11; experiment: Binding of EPO to D11 monoclonal antibody after UV-B exposure of the formulation; set-up: species or system human; settings: 20 mM antioxidant; up to 24 hours UV
Description: For the examples below involving exposure to UVB radiation, each sample was exposed to UVB light (λ≈302 nm) for varying times, using a UVP 8W model UVLMS-38 lamp at 4° C. The formulations were then analyzed using size exclusion chromatography high pressure liquid chromatography (SEC-HPLC). Aggregation (measured via SEC-HPLC analysis) and binding (measured using CM5 gold sensor chips) were measured to determine the effect of the antioxidant on aggregation and bioactivity of the therapeutic protein. The binding activity of therapeutic protein to a ligand (e.g. to an antibody or binding partner, or, in cases where the therapeutic was an antibody, binding activity to the specific target antigen or to protein A) was determined as follows. […] The therapeutic protein-binding ligand of interest was injected until the desired immobilization level was achieved (above 5000 response units). Three different therapeutic protein-binding ligands were measured—Antibody A's target antigen, Protein A, and D11 (an antibody that binds to erythropoietin). […] The remaining activated groups were blocked with 1.0 M ethanolamine-HCl, pH 8.5. A standard curve was prepared by using native forms of the therapeutic protein of interest. Native forms of the therapeutic protein were diluted in HBS-EP buffer (pH 7.4) to concentrations between 1 and 5 μg/mL, and then injected on the column, prepared as described above to obtain a standard curve. At the end of each sample run, regeneration buffer was used to wash away any bound therapeutic protein in preparation for subsequent injections. Various UV-stressed antibody formulations were also diluted in HBS-EP buffer (pH 7.4) to a concentration within the standard curve region, and injected to quantitate the loss of bioactivity to its respective ligand-binding partner. […] The protein was exposed to the same conditions as Antibody A and Antibody B for up to 24 hours.

[8] = system: Antibody A binding to protein A; experiment: Binding of Antibody A to protein A (CM5 sensor chip) after UV-B exposure of the formulation; settings: 20 mM antioxidant; pH 5.20 acetate buffer; 302 nm UV light over 24 hours
Description: (§2) For the examples below involving exposure to UVB radiation, each sample was exposed to UVB light (λ≈302 nm) for varying times, using a UVP 8W model UVLMS-38 lamp at 4° C. The formulations were then analyzed using size exclusion chromatography high pressure liquid chromatography (SEC-HPLC). Aggregation (measured via SEC-HPLC analysis) and binding (measured using CM5 gold sensor chips) were measured to determine the effect of the antioxidant on aggregation and bioactivity of the therapeutic protein. The binding activity of therapeutic protein to a ligand (e.g. to an antibody or binding partner, or, in cases where the therapeutic was an antibody, binding activity to the specific target antigen or to protein A) was determined as follows. […] The therapeutic protein-binding ligand of interest was injected until the desired immobilization level was achieved (above 5000 response units). Three different therapeutic protein-binding ligands were measured—Antibody A's target antigen, Protein A, and D11 (an antibody that binds to erythropoietin). […] The remaining activated groups were blocked with 1.0 M ethanolamine-HCl, pH 8.5. […] Various UV-stressed antibody formulations were also diluted in HBS-EP buffer (pH 7.4) to a concentration within the standard curve region, and injected to quantitate the loss of bioactivity to its respective ligand-binding partner.

[9] = system: Antibody A binding to its target antigen; experiment: Binding of Antibody A to its target antigen (CM5 sensor chip) after UV-B exposure of the formulation; settings: 20 mM antioxidant; pH 5.20 acetate buffer; 302 nm UV light over 24 hours
Description: as §2

[10] = system: EPO; experiment: SEC-HPLC aggregation/degradation of EPO after UV-B exposure; format: physicochemical, human; settings: 20 mM antioxidant; 1 mg/mL EPO, 25 mM sodium phosphate, 125 mM sodium chloride, pH 6.90; 302 nm UV-B 24 hours
Description: as §1, with “protein. The SEC-HPLC conditions were as follows: a G3000 TOSOH SWXL column was used and the flowrate was set at 0.5 mL/min. […] FIG. 4 (EPO), FIG. 5 (anti-streptavidin), and FIG. 6 (Antibody A) show SEC-HPLC chromatograms of each proteins following exposure to 302 nm UV-B light for 24 hours. […] Each formulation was then exposed to 302 nm UV-B light for 24 hours. The protein formulation was then analyzed using SEC-HPLC.” for “protein.”

[11] = system: Antibody A; experiment: Discoloration (yellowing) of Antibody A formulations after UV-B exposure; format: physicochemical
Description: Discoloration can be assessed visually or by measurement of absorbance at a specific wavelength.
Proteins may also become yellow in color following exposure to UV light.
Pyridoxine is another water soluble B-vitamin (B6) which was studied as a possible antioxidant for preventing protein aggregation caused by UV-B exposure.

[12] = Color change of the antioxidant upon light; format: physicochemical
Excerpt: P-amino benzoic acid (PABA) has a relatively powerful antioxidant effect.

[13] = system: EPO; settings: 10 mM additive, 0.06% H2O2, 24 hours, room temperature
Description: An exemplary protocol for Met-54 oxidation and peroxide assay is as follows. 0.6% hydrogen peroxide is added to 20 mM sodium phosphate solution containing 0.336 m/mL erythropoietin (EPO). Following 24 hours incubation at room temperature, 1 μg of the enzyme catalase is added to quench the excess hydrogen peroxide. 10 μL of 1M Tris solution pH 8.0 is added to 90 μL of EPO solution followed by addition of 2 μL of a 1 mg/mL trypsin solution. Samples are incubated overnight at room temperature. Peptides are separated using reverse phase HPLC (RP-HPLC). Peptides are identified by mass spectrometry (LC-MS). % Met-54 oxidation is calculated using peak areas determined by integration of UV chromatogram from RP-HPLC

[14] = system: Antibody A; settings: 400 mM proline; 1% H2O2, 2 weeks
Description: Extreme conditions designed to greatly increase free radical generation include exposure to UVA and/or UVB light at 4° C. to 25° C. for 0.5 to 24 hours, or exposure to a 1% solution of hydrogen peroxide at 25° C. for 2 weeks, or exposure to 0.2 mM Fe-EDTA, 0.3% H2O2, and 1 mM ascorbate for 2 hours or longer at 37° C. Samples may alternatively be exposed to light providing an overall illumination of not less than 1.2 million lux hours and an integrated near UV energy of not less than 200 watt hours/square meter.

[15] = 20 mM and 50 mM pyridoxine, Antibody A 30 mg/mL, UV-B 4 hours

In the case of `Cc1ncc(C[n+]2csc(CCO)c2C)c(N)n1` [Thiamine, thiamine], the “aggregation of Antibody A (SEC-HPLC)” value ([1]; thiamine as low as 5 mM, Antibody A 3 mg/mL, UV-B 4 hours) is given as “able to significantly inhibit Antibody A aggregation”, the toxicity in humans [2] is given as “no known toxicity” and the solubility [3] is given as “more soluble than the cinnamic acids or the benzoic acid derivatives”.

With `OCC(O)CO` [glycerol] the “effect of added glycerol on thermal aggregation caused by ferulic and coumaric acid” value [4] was “counter-acted that thermal aggregation”.

For `O=C(/C=C/c1ccc(O)c(O)c1)O[C@@H]1C[C@](O)(C(=O)O)C[C@@H](O)[C@H]1O` [chlorogenic acid], the “binding of Antibody B to protein A after UV-B exposure” value [5] was “prevented UV-B induced degradation”, the “amount of aggregate of anti-streptavidin (SEC-HPLC)” value [6] was “dramatically reduced” and the “binding of EPO to D11 mAb after UV light exposure” value [7] was “able to significantly preserve”. For the same compound, the “amount of aggregate of Antibody A (SEC-HPLC)” value ([1]; 20 mM antioxidant, 1 mg/mL Antibody A, 10 mM sodium acetate, 9% sucrose, pH 5.20, 302 nm UV-B 24 hours) was “dramatically reduced”, the “binding of Antibody A to protein A after UV exposure” value [8] was “preserved” and the “binding of Antibody A to its target antigen after UV exposure” value [9] was “preserved”. The “amount of aggregate of EPO (SEC-HPLC)” value [10] was “dramatically reduced”.

In the case of `Cc1ncc(CO)c(CO)c1O` [pyridoxine], the “appearance of formulation upon exposure to UV radiation” value [11, 15] is reported as “caused the formulation to appear yellow”, the “color change upon light” value [12] is reported as “changes to an orange-brown color upon light” and the “oxidation and aggregation of Antibody A” value [1, 15] is reported as “did protect the protein from oxidation and aggregation”. The solubility [3] was “highly soluble”.

For `CSCC[C@H](N)C(=O)O` [methionine], the “binding of Antibody B to protein A after UV-B exposure” value [5] was “not able to prevent this UV-B induced degradation”, the “yellowing of Antibody A formulation” value ([11]; 10 mM additive alone, UV-B light 24 hours) was “significant yellowing” and the “amount of Met-54 oxidation” value [13] was “able to reduce the amount of EPO oxidation”.

For `O=C(O)[C@@H]1CCCN1` [proline], the “protection of Antibody A from UV-B induced degradation (aggregation)” value ([1]; 200 mM proline, Antibody A 1 mg/mL pH 5.00, UV 15 minutes) was “weak effect” and the “prevention of Antibody A aggregation caused by peroxide” value [14] was “stronger effect”.

For `Nc1ccc(C(=O)O)cc1` [PABA, P-amino benzoic acid], the “color change upon light” value [12] is given as “changes to an orange-brown color upon light”, the “aggregation of Antibody A (SEC-HPLC)” value ([1]; 20 mM PABA, Antibody A 1 mg/mL pH 5.00, UV 1, 2, or 3 hours) is given as “able to significantly reduce the amount of aggregation” and the toxicity in humans [2] is given as “without significant toxicity”.
